Assay results taken from patent US11453681B2, “Substituted eneoxindoles and uses thereof” (Gilead Sciences, Inc., priority 2019, dated 2022).

Biological target: human HPK1 (MAP4K1) (Homo sapiens (Human), UniProt Q92918)
Test: HPK1 IC50 Assay
Type: biochemical
Conditions: recombinant HPK1 kinase domain 0.15 nM, synthetic peptide substrate STK S1, 3 hours at 25° C., time-resolved fluorescence energy transfer; geometric mean of multiple experiments
Procedure: The enzymatic activity of human HPK1 (MAP4K1) was monitored in a biochemical assay in the presence or absence of compounds and using a synthetic peptide substrate. An increase in phosphorylation of the peptide by HPK1 was indicative of its kinase activity.
Recombinant HPK1 kinase domain produced via baculovirus infection of insect cells was obtained from Proteros (Proteros Biostructures #PR-0322) and was pre-activated in the presence of 2 mM ATP (Sigma-Aldrich, cat #GE27-2056-01) and 2 mM magnesium chloride for 16 hours at 4° C. The protein reaction mixture was then loaded to a desalting column (Thermo Fisher Scientific, Cat #89889) to remove excess ATP. HPK1 was eluted with buffer containing 20 mM Tris (2-Amino-2-(hydroxymethyl)propane-1,3-diol) pH 8.0, 150 mM NaCl, 2 mM dithiothreitol and 5% glycerol, and was frozen at −80° C. for later use. HPK1 dual phosphorylation was confirmed by mass spectrometry.
Ten nanoliters of test compounds dissolved in DMSO at various concentrations were dispensed into a 384-well ProxiPlate (PerkinElmer #6008289). Five microliters of a solution of recombinant HPK1 diluted in HPK1 kinase assay buffer (50 mM BES [N,N-Bis(2-hydroxyethyl)-2-aminoethanesulfonic acid], pH 7.0; 10 mM magnesium chloride; 0.01% Triton X-100; 1 mM dithiothreitol; 0.01% bovine serum albumin; 0.1 mM sodium orthovanadate) was added to the compound-containing plate and was incubated for 15 minutes at 25° C. Five microliters of a mixture of ATP (Sigma-Aldrich #A6559) and peptide substrate STK Si (Cisbio #61ST1BLC) diluted in HPK1 kinase assay buffer was then added to start the reaction. Final concentrations were 0.15 nM for HPK1, […], and 1 […]. The reaction mixture was incubated at 25° C. for 3 hours and was stopped with the addition of 10 μl of an EDTA (Ethylenediaminetetraacetic acid)-containing detection buffer (Cisbio #62SDBRDF) supplemented with Europium cryptate-labeled anti-phospho-serine/threonine antibodies (Cisbio #62ST1PEJ) and XL665-labeled streptavidin (Cisbio #610SAXLG). The mixture was incubated for 16 hours at room temperature and peptide phosphorylation was measured by time-resolved fluorescence energy transfer (665 nm/620 nm) on an Envision plate reader (PerkinElmer).
Data in Table 1 were normalized based on positive (staurosporine) and negative (DMSO) controls. Least squares curve fittings were performed using a four-parameter variable slope nonlinear regression model. IC50 is defined as the concentration of compound required to inhibit 50% of maximum phosphorylation. IC50 values from multiple experiments were averaged by geometric mean and the standard deviation was calculated.

Chain of human HPK1 (MAP4K1) (Q92918 17-274): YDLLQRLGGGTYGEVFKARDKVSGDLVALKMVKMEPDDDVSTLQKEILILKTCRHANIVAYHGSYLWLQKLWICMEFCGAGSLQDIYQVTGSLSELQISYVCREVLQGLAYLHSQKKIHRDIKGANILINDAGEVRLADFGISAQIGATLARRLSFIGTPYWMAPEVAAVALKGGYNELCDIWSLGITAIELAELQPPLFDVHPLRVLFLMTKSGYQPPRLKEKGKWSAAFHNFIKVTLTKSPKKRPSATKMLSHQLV

| Compound | IC50 |
| --- | --- |
| Cc1c(-c2ccc3c(c2)/C(=C/c2cc4ncccc4[nH]2)C(=O)N3)cnc2c1NCCO2 [Compound C57, (Z)-3-((1H-pyrrolo[3,2-b]pyridin-2-yl)methylene)-5-(8-methyl-2,3-dihydro-1H-pyrido[2,3-b][1,4]oxazin-7-yl)indolin-2-one] | 0.05 nM |
| Cc1c(-c2ccc3c(c2)/C(=C/c2cc(Br)c[nH]2)C(=O)N3)cnc2c1NCCO2 [Compound C20, (Z)-3-((4-bromo-1H-pyrrol-2-yl)methylene)-5-(8-methyl-2,3-dihydro-1H-pyrido[2,3-b][1,4]oxazin-7-yl)indolin-2-one] | 0.16 nM |
| Cc1c(-c2cnc3c(c2)NCCO3)cc(F)c2c1/C(=C/c1cc3cnccc3[nH]1)C(=O)N2 [Compound C42, (Z)-3-((1H-pyrrolo[3,2-c]pyridin-2-yl)methylene)-5-(2,3-dihydro-1H-pyrido[2,3-b][1,4]oxazin-7-yl)-7-fluoro-4-methylindolin-2-one] | 9.3 nM |
| CC/C(=C1/C(=O)Nc2ccc(-c3cnc4c(c3C)NCCO4)cc21)c1cnc[nH]1 [Compound C36, (Z)-3-(1-(1H-imidazol-5-yl)propylidene)-5-(8-methyl-2,3-dihydro-H-pyrido[2,3-b][1,4]oxazin-7-yl)indolin-2-one] | 1 nM |
| Cc1c(-c2cnc3c(c2)/C(=C/c2cc4cnccc4[nH]2)C(=O)N3)cnc2c1NCCO2 [Compound C47, (Z)-3-((1H-pyrrolo[3,2-c]pyridin-2-yl)methylene)-5-(8-methyl-2,3-dihydro-1H-pyrido[2,3-b][1,4]oxazin-7-yl)-1,3-dihydro-2H-pyrrolo[2,3-b]pyridin-2-one] | 1.13 nM |
| Cc1c(-c2cc(F)c3c(c2)/C(=C/c2ccc[nH]2)C(=O)N3)cnc2c1NCCO2 [Compound C26, (Z)-3-((1H-pyrrol-2-yl)methylene)-7-fluoro-5-(8-methyl-2,3-dihydro-1H-pyrido[2,3-b][1,4]oxazin-7-yl)indolin-2-one] | 0.05 nM |
| Cc1c(-c2cc(F)c3c(c2C)/C(=C/c2cc(C#N)c[nH]2)C(=O)N3)cnc2c1NCCO2 [Compound C12, (Z)-5-((7-fluoro-4-methyl-5-(8-methyl-2,3-dihydro-1H-pyrido[2,3-b][1,4]oxazin-7-yl)-2-oxoindolin-3-ylidene)methyl)-1H-pyrrole-3-carbonitrile] | 0.67 nM |
| Cc1c(-c2ccc3c(c2)/C(=C/c2ccc[nH]2)C(=O)N3)cnc2c1NCCO2 [Compound C29, (Z)-3-((1H-pyrrol-2-yl)methylene)-5-(8-methyl-2,3-dihydro-1H-pyrido[2,3-b][1,4]oxazin-7-yl)indolin-2-one] | 0.05 nM |
| Cc1c(-c2cc(F)c3c(c2C)/C(=C/c2cn[nH]c2)C(=O)N3)cnc2c1NCCO2 [Compound C65, (Z)-3-((1H-pyrazol-4-yl)methylene)-7-fluoro-4-methyl-5-(8-methyl-2,3-dihydro-1H-pyrido[2,3-b][1,4]oxazin-7-yl)indolin-2-one] | 1.03 nM |
| Cc1c(-c2ccc3c(c2)/C(=C/c2cc(C#N)c[nH]2)C(=O)N3)cnc2c1NCCO2 [Compound C21, (Z)-5-((5-(8-methyl-2,3-dihydro-1H-pyrido[2,3-b][1,4]oxazin-7-yl)-2-oxoindolin-3-ylidene)methyl)-1H-pyrrole-3-carbonitrile] | 0.07 nM |
| Cc1c(-c2ccc3c(c2)/C(=C/c2cn[nH]c2)C(=O)N3)cnc2c1NCCO2 [Compound C69, (Z)-3-((1H-pyrazol-4-yl)methylene)-5-(8-methyl-2,3-dihydro-1H-pyrido[2,3-b][1,4]oxazin-7-yl)indolin-2-one] | 0.26 nM |
| Cc1c(-c2ccc3c(c2)/C(=C/c2cc4cccnc4[nH]2)C(=O)N3)cnc2c1NCCO2 [Compound C61, (Z)-3-((1H-pyrrolo[2,3-b]pyridin-2-yl)methylene)-5-(8-methyl-2,3-dihydro-1H-pyrido[2,3-b][1,4]oxazin-7-yl)indolin-2-one] | 1.1 nM |

Other lines, results leading:

| IC50 | Compound |
| --- | --- |
| 0.16 nM | Cc1c(-c2cc3c(cc2Cl)NC(=O)/C3=C\c2cc3cnccc3[nH]2)cnc2c1NCCO2 [Compound C48, (Z)-3-((1H-pyrrolo[3,2-c]pyridin-2-yl)methylene)-6-chloro-5-(8-methyl-2,3-dihydro-1H-pyrido[2,3-b][1,4]oxazin-7-yl)indolin-2-one] |
| 0.05 nM | Cc1c[nH]c(/C=C2\C(=O)Nc3ccc(-c4cnc5c(c4C)NCCO5)cc32)c1 [Compound C28, (Z)-3-((4-methyl-H-pyrrol-2-yl)methylene)-5-(8-methyl-2,3-dihydro-1H-pyrido[2,3-b][1,4]oxazin-7-yl)indolin-2-one] |
| 1.95 nM | Cc1ncc(/C=C2\C(=O)Nc3ccc(-c4ccc5c(c4C)NCCO5)cc32)[nH]1 [Compound C2, (Z)-3-((2-methyl-1H-imidazol-5-yl)methylene)-5-(5-methyl-3,4-dihydro-2H-benzo[b][1,4]oxazin-6-yl)indolin-2-one] |
| 0.29 nM | Cc1ncc(/C=C2\C(=O)Nc3cc(Cl)c(-c4cnc5c(c4C)NCCO5)cc32)[nH]1 [Compound C7, (Z)-6-chloro-3-((2-methyl-1H-imidazol-5-yl)methylene)-5-(8-methyl-2,3-dihydro-1H-pyrido[2,3-b][1,4]oxazin-7-yl)indolin-2-one] |
| 0.16 nM | Cc1c(-c2cc3c(cc2F)NC(=O)/C3=C\c2cc3ccccc3[nH]2)cnc2c1NCCO2 [Compound C51, (Z)-3-((1H-indol-2-yl)methylene)-6-fluoro-5-(8-methyl-2,3-dihydro-1H-pyrido[2,3-b][1,4]oxazin-7-yl)indolin-2-one] |
| 0.22 nM | Cc1ncc(/C=C2\C(=O)Nc3c(F)cc(-c4cnc5c(c4C)NCCO5)cc32)[nH]1 [Compound C10, (Z)-7-fluoro-3-((2-methyl-1H-imidazol-5-yl)methylene)-5-(8-methyl-2,3-dihydro-1H-pyrido[2,3-b][1,4]oxazin-7-yl)indolin-2-one] |
| 0.31 nM | Cc1c(-c2cc(F)c3c(c2C)/C(=C/c2cc4ncccc4[nH]2)C(=O)N3)cnc2c1NCCO2 [Compound C64, (Z)-3-((1H-pyrrolo[3,2-b]pyridin-2-yl)methylene)-7-fluoro-4-methyl-5-(8-methyl-2,3-dihydro-1H-pyrido[2,3-b][1,4]oxazin-7-yl)indolin-2-one] |
| 0.12 nM | CCc1nc(C)c(/C=C2\C(=O)Nc3ccc(-c4cnc5c(c4C)NCCO5)cc32)[nH]1 [Compound C6, (Z)-3-((2-ethyl-4-methyl-1H-imidazol-5-yl)methylene)-5-(8-methyl-2,3-dihydro-1H-pyrido[2,3-b][1,4]oxazin-7-yl)indolin-2-one] |
| 0.13 nM | Cc1c(-c2cc3c(cc2F)NC(=O)/C3=C\c2cc3ccncc3[nH]2)cnc2c1NCCO2 [Compound C43, (Z)-3-((1H-pyrrolo[2,3-c]pyridin-2-yl)methylene)-6-fluoro-5-(8-methyl-2,3-dihydro-1H-pyrido[2,3-b][1,4]oxazin-7-yl)indolin-2-one] |
| 0.18 nM | Cc1ncc(/C=C2\C(=O)Nc3cc(F)c(-c4cnc5c(c4C)NCCO5)cc32)[nH]1 [Compound C8, (Z)-6-fluoro-3-((2-methyl-H-imidazol-5-yl)methylene)-5-(8-methyl-2,3-dihydro-1H-pyrido[2,3-b][1,4]oxazin-7-yl)indolin-2-one] |
| 0.07 nM | Cc1ncc(/C=C2\C(=O)Nc3ccc(-c4cnc5c(c4C)NCCO5)cc32)[nH]1 [Compound C15, (Z)-3-((2-methyl-H-imidazol-5-yl)methylene)-5-(8-methyl-2,3-dihydro-1H-pyrido[2,3-b][1,4]oxazin-7-yl)indolin-2-one] |
